{"source": "ChEMBL document CHEMBL1201861", "about": "“Genomics of Drug Sensitity in Cancer screening data, Wellcome Trust Sanger Institute”", "assay_in_all_cases": "cells", "key": {"SW1573": {"tested_on": "SW1573", "format": "functional, cell-based", "conditions": "Homo sapiens", "description": "SANGER: Inhibition of human SW1573 cell growth in a cell viability assay."}, "MEL-JUSO": {"tested_on": "MEL-JUSO", "format": "functional, cell-based", "conditions": "Homo sapiens", "description": "SANGER: Inhibition of human MEL-JUSO cell growth in a cell viability assay."}, "DK-MG": {"tested_on": "DK-MG", "format": "functional, cell-based", "conditions": "Homo sapiens", "description": "SANGER: Inhibition of human DK-MG cell growth in a cell viability assay."}, "EC-GI-10": {"tested_on": "EC-GI-10", "format": "functional, cell-based, Homo sapiens", "conditions": "Homo sapiens, EC-GI-10", "description": "SANGER: Inhibition of human EC-GI-10 cell growth in a cell viability assay."}, "WM-115": {"tested_on": "WM-115", "format": "functional, cell-based", "conditions": "Homo sapiens", "description": "SANGER: Inhibition of human WM-115 cell growth in a cell viability assay."}, "CAL-62": {"tested_on": "CAL-62", "format": "functional, cell-based", "conditions": "Homo sapiens", "description": "SANGER: Inhibition of human CAL-62 cell growth in a cell viability assay."}, "OAW-42": {"tested_on": "OAW-42", "format": "functional, cell-based", "conditions": "Homo sapiens", "description": "SANGER: Inhibition of human OAW-42 cell growth in a cell viability assay."}, "CAL-120": {"tested_on": "CAL-120", "format": "functional, cell-based", "conditions": "Homo sapiens", "description": "SANGER: Inhibition of human CAL-120 cell growth in a cell viability assay."}, "HuO9": {"tested_on": "HuO9", "format": "functional, cell-based", "conditions": "Homo sapiens", "description": "SANGER: Inhibition of human HuO9 cell growth in a cell viability assay."}, "HuP-T4": {"tested_on": "HuP-T4", "format": "functional, cell-based", "conditions": "Homo sapiens", "description": "SANGER: Inhibition of human HuP-T4 cell growth in a cell viability assay."}, "MKN-1": {"tested_on": "MKN-1", "format": "functional, cell-based", "conditions": "Homo sapiens", "description": "SANGER: Inhibition of human MKN1 cell growth in a cell viability assay."}, "LCLC-97TM1": {"tested_on": "LCLC-97TM1", "format": "functional, cell-based", "conditions": "Homo sapiens", "description": "SANGER: Inhibition of human LCLC-97TM1 cell growth in a cell viability assay."}, "HT55": {"tested_on": "HT55", "format": "functional, cell-based", "conditions": "Homo sapiens", "description": "SANGER: Inhibition of human HT55 cell growth in a cell viability assay."}, "MKN-7": {"tested_on": "MKN-7", "format": "functional, cell-based", "conditions": "Homo sapiens", "description": "SANGER: Inhibition of human MKN7 cell growth in a cell viability assay."}, "KOSC-2": {"tested_on": "KOSC-2", "format": "functional, cell-based", "conditions": "Homo sapiens", "description": "SANGER: Inhibition of human KOSC-2 cell growth in a cell viability assay."}, "KU-19-19": {"tested_on": "KU-19-19", "format": "functional, cell-based", "conditions": "Homo sapiens", "description": "SANGER: Inhibition of human KU-19-19 cell growth in a cell viability assay."}, "HTC-C3": {"tested_on": "HTC-C3", "format": "functional, cell-based", "conditions": "Homo sapiens", "description": "SANGER: Inhibition of human HTC-C3 cell growth in a cell viability assay."}, "EFM-19": {"tested_on": "EFM-19", "format": "functional, cell-based", "conditions": "Homo sapiens", "description": "SANGER: Inhibition of human EFM-19 cell growth in a cell viability assay."}, "A-431": {"tested_on": "A-431", "format": "functional, cell-based", "conditions": "Homo sapiens", "description": "SANGER: Inhibition of human A431 cell growth in a cell viability assay."}, "ASPC1": {"tested_on": "ASPC1", "format": "functional, cell-based", "conditions": "Homo sapiens", "description": "SANGER: Inhibition of human AsPC-1 cell growth in a cell viability assay."}, "LoVo": {"tested_on": "LoVo", "format": "functional, cell-based", "conditions": "Homo sapiens", "description": "SANGER: Inhibition of human LoVo cell growth in a cell viability assay."}, "NCI-H2170": {"tested_on": "NCI-H2170", "format": "functional, cell-based", "conditions": "Homo sapiens", "description": "SANGER: Inhibition of human NCI-H2170 cell growth in a cell viability assay."}, "HuTu80": {"tested_on": "HuTu80", "format": "functional, cell-based, Homo sapiens, HUTU-80", "conditions": "Homo sapiens, HuTu80", "description": "SANGER: Inhibition of human HUTU-80 cell growth in a cell viability assay."}, "RMG-I": {"tested_on": "RMG-I", "format": "functional, cell-based", "conditions": "Homo sapiens", "description": "SANGER: Inhibition of human RMG-I cell growth in a cell viability assay."}, "A-375": {"tested_on": "A-375", "format": "functional, cell-based", "conditions": "Homo sapiens", "description": "SANGER: Inhibition of human A375 cell growth in a cell viability assay."}, "TCC-SUP": {"tested_on": "TCC-SUP", "format": "functional, cell-based", "conditions": "Homo sapiens", "description": "SANGER: Inhibition of human TCCSUP cell growth in a cell viability assay."}, "KYSE-510": {"tested_on": "KYSE-510", "format": "functional, cell-based", "conditions": "Homo sapiens", "description": "SANGER: Inhibition of human KYSE-510 cell growth in a cell viability assay."}, "KYSE-70 cell line": {"tested_on": "KYSE-70 cell line", "format": "functional, cell-based", "conditions": "Homo sapiens", "description": "SANGER: Inhibition of human KYSE-70 cell growth in a cell viability assay."}, "NB14": {"tested_on": "NB14", "format": "functional, cell-based, Homo sapiens", "conditions": "Homo sapiens, NB14", "description": "SANGER: Inhibition of human NB14 cell growth in a cell viability assay."}, "LK-2": {"tested_on": "LK-2", "format": "functional, cell-based", "conditions": "Homo sapiens", "description": "SANGER: Inhibition of human LK-2 cell growth in a cell viability assay."}, "CAMA-1": {"tested_on": "CAMA-1", "format": "functional, cell-based", "conditions": "Homo sapiens", "description": "SANGER: Inhibition of human CAMA-1 cell growth in a cell viability assay."}, "VM-CUB-1": {"tested_on": "VM-CUB-1", "format": "functional, cell-based", "conditions": "Homo sapiens", "description": "SANGER: Inhibition of human VM-CUB-1 cell growth in a cell viability assay."}, "CAL-39": {"tested_on": "CAL-39", "format": "functional, cell-based", "conditions": "Homo sapiens", "description": "SANGER: Inhibition of human CAL-39 cell growth in a cell viability assay."}, "LCLC-103H cell line": {"tested_on": "LCLC-103H cell line", "format": "functional, cell-based", "conditions": "Homo sapiens", "description": "SANGER: Inhibition of human LCLC-103H cell growth in a cell viability assay."}, "NUGC-3": {"tested_on": "NUGC-3", "format": "functional, cell-based", "conditions": "Homo sapiens", "description": "SANGER: Inhibition of human NUGC-3 cell growth in a cell viability assay."}, "SW13": {"tested_on": "SW13", "format": "functional, cell-based", "conditions": "Homo sapiens", "description": "SANGER: Inhibition of human SW13 cell growth in a cell viability assay."}, "HOP-92": {"tested_on": "HOP-92", "format": "functional, cell-based", "conditions": "Homo sapiens", "description": "SANGER: Inhibition of human HOP-92 cell growth in a cell viability assay."}, "HCC1937": {"tested_on": "HCC1937", "format": "functional, cell-based", "conditions": "Homo sapiens", "description": "SANGER: Inhibition of human HCC1937 cell growth in a cell viability assay."}, "KP-4": {"tested_on": "KP-4", "format": "functional, cell-based", "conditions": "Homo sapiens", "description": "SANGER: Inhibition of human KP-4 cell growth in a cell viability assay."}, "SK-MEL-30": {"tested_on": "SK-MEL-30", "format": "functional, cell-based", "conditions": "Homo sapiens", "description": "SANGER: Inhibition of human SK-MEL-30 cell growth in a cell viability assay."}, "SW626": {"tested_on": "SW626", "format": "functional, cell-based", "conditions": "Homo sapiens", "description": "SANGER: Inhibition of human SW626 cell growth in a cell viability assay."}, "769-P": {"tested_on": "769-P", "format": "functional, cell-based", "conditions": "Homo sapiens", "description": "SANGER: Inhibition of human 769-P cell growth in a cell viability assay."}, "SK-MEL3": {"tested_on": "SK-MEL3", "format": "functional, cell-based, SK-MEL-3", "conditions": "Homo sapiens", "description": "SANGER: Inhibition of human SK-MEL-3 cell growth in a cell viability assay."}, "HCC70": {"tested_on": "HCC70", "format": "functional, cell-based", "conditions": "Homo sapiens", "description": "SANGER: Inhibition of human HCC70 cell growth in a cell viability assay."}}}
{"smiles": "CN(NC(=O)CC(=O)NN(C)C(=S)c1ccccc1)C(=S)c1ccccc1", "note": "[ELESCLOMOL]", "values": [{"measurement": "IC50", "setting": "SW1573", "value": 10.7, "unit": "nM"}, {"measurement": "IC50", "setting": "MEL-JUSO", "value": 10.6, "unit": "nM"}, {"measurement": "IC50", "setting": "DK-MG", "value": 17.1, "unit": "nM"}, {"measurement": "IC50", "setting": "EC-GI-10", "value": 44.6, "unit": "nM"}, {"measurement": "IC50", "setting": "WM-115", "value": 34, "unit": "nM"}, {"measurement": "IC50", "setting": "CAL-62", "value": 55.2, "unit": "nM"}, {"measurement": "IC50", "setting": "OAW-42", "value": 81.6, "unit": "nM"}, {"measurement": "IC50", "setting": "CAL-120", "value": 14, "unit": "nM"}, {"measurement": "IC50", "setting": "HuO9", "value": 21.5, "unit": "nM"}, {"measurement": "IC50", "setting": "HuP-T4", "value": 20.7, "unit": "nM"}, {"measurement": "IC50", "setting": "MKN-1", "value": 26, "unit": "nM"}, {"measurement": "IC50", "setting": "LCLC-97TM1", "value": "> 200", "unit": "nM"}, {"measurement": "IC50", "setting": "HT55", "value": "> 200", "unit": "nM"}, {"measurement": "IC50", "setting": "MKN-7", "value": 61, "unit": "nM"}, {"measurement": "IC50", "setting": "KOSC-2", "value": 5.45, "unit": "nM"}, {"measurement": "IC50", "setting": "KU-19-19", "value": 7.09, "unit": "nM"}, {"measurement": "IC50", "setting": "HTC-C3", "value": 30.4, "unit": "nM"}, {"measurement": "IC50", "setting": "EFM-19", "value": 82.5, "unit": "nM"}, {"measurement": "IC50", "setting": "A-431", "value": 126, "unit": "nM"}, {"measurement": "IC50", "setting": "ASPC1", "value": 37.7, "unit": "nM"}, {"measurement": "IC50", "setting": "LoVo", "value": 78.6, "unit": "nM"}, {"measurement": "IC50", "setting": "NCI-H2170", "value": 28.8, "unit": "nM"}, {"measurement": "IC50", "setting": "HuTu80", "value": 0.791, "unit": "nM"}, {"measurement": "IC50", "setting": "RMG-I", "value": "> 200", "unit": "nM"}, {"measurement": "IC50", "setting": "A-375", "value": 4.14, "unit": "nM"}, {"measurement": "IC50", "setting": "TCC-SUP", "value": 13.5, "unit": "nM"}, {"measurement": "IC50", "setting": "KYSE-510", "value": 110, "unit": "nM"}, {"measurement": "IC50", "setting": "KYSE-70 cell line", "value": 54, "unit": "nM"}, {"measurement": "IC50", "setting": "NB14", "value": 6.64, "unit": "nM"}, {"measurement": "IC50", "setting": "LK-2", "value": 19.7, "unit": "nM"}, {"measurement": "IC50", "setting": "CAMA-1", "value": "> 200", "unit": "nM"}, {"measurement": "IC50", "setting": "VM-CUB-1", "value": 12.7, "unit": "nM"}, {"measurement": "IC50", "setting": "CAL-39", "value": 13.3, "unit": "nM"}, {"measurement": "IC50", "setting": "LCLC-103H cell line", "value": "> 200", "unit": "nM"}, {"measurement": "IC50", "setting": "NUGC-3", "value": 7.33, "unit": "nM"}, {"measurement": "IC50", "setting": "SW13", "value": 7.69, "unit": "nM"}, {"measurement": "IC50", "setting": "HOP-92", "value": 12.7, "unit": "nM"}, {"measurement": "IC50", "setting": "HCC1937", "value": 35.2, "unit": "nM"}, {"measurement": "IC50", "setting": "KP-4", "value": 2.17, "unit": "nM"}, {"measurement": "IC50", "setting": "SK-MEL-30", "value": "> 200", "unit": "nM"}, {"measurement": "IC50", "setting": "SW626", "value": 54, "unit": "nM"}, {"measurement": "IC50", "setting": "769-P", "value": 9.82, "unit": "nM"}, {"measurement": "IC50", "setting": "SK-MEL3", "value": "> 200", "unit": "nM"}, {"measurement": "IC50", "setting": "HCC70", "value": 53.1, "unit": "nM"}]}
